Reference: ChEMBL document CHEMBL1125682, “Novel synthesis and biochemical properties of an [125I]-labeled photoaffinity probe for thromboxane A2/prostaglandin H2 receptors” (J Med Chem, 1991)

Key:
Thromboxane A2 receptor [1] = target: T1, Thromboxane A2 receptor (Homo sapiens, UniProt P21731); assay: Binding affinity towards Thromboxane A2 receptor/Prostaglandin receptor in human platelet membranes using [125I]- as the radioligand; assay type: cell membranes
T1 sequence (P21731 whole entry): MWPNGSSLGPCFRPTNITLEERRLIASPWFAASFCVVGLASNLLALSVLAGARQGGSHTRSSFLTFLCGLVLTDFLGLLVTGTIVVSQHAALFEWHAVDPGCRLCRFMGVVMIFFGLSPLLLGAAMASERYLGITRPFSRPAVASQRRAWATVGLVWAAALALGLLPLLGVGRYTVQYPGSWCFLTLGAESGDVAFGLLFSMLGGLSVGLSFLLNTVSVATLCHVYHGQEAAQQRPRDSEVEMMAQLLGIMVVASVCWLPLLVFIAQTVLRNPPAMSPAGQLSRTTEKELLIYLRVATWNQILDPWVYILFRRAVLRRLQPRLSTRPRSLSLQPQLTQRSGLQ

Thromboxane A2 receptor [2] = target: T1, Thromboxane A2 receptor; assay: Binding affinity towards Thromboxane A2/ Prostaglandin H2 receptor in human platelet membranes using [125I]- as the radioligand.; assay type: cell membranes

Row | Structure (SMILES) | IC50 (Thromboxane A2 receptor [1]) | IC50 (Thromboxane A2 receptor [2])
1 | O=C(O)CCC/C=C\C[C@@H]1[C@@H](/C=C/[C@@H](O)COc2ccc(I)cc2)[C@H]2CC[C@@H]1O2 | 50 nM | 
2 | O=C(O)C[C@@H]1CCCc2c1n(Cc1ccc(Cl)cc1)c1ccc(F)cc21 (stereo in doubt; L-657925) |  | 11.2 nM
3 | O=C(O)C[C@@H]1CCCc2c1n(Cc1ccc(Cl)cc1)c1ccc(F)cc21 (stereo in doubt; L-657926) |  | 1500 nM
